Measurements reported in publication PMC9890698 (BMC Biology, 2023).
“And” between values parts separate entries of the source, which are not always exact repeats. Equal values may be shown once.

Target: T1, Human P2Y1-R (Homo sapiens, UniProt P47900)
T1 construct: expressed in transfected cells; host or cells: HEK293T/17
Assay: β-arrestin 2 recruitment BRET1 assay (β-arrestin 2-RLuc / P2Y1-R-Venus) in HEK293T cells
Assay type: cell-based
Details: for b-arrestin 2 signaling, Ligand-modulated BRET (% of maximum MRS2179 mean value): Figure 4b; for b-arrestin 2 signaling, Ligand-modulated BRET (% of maximum MRS2179 mean value) / MRS2179-modulated BRET / Ligand-modulated BRET: individual replicates; for Effect on β-arrestin 2 recruitment / BRET signal between P2Y1-R-Venus and β-arrestin 2-RLuc: HEK293T cells, high P2Y1-R expression; for MRS2179-modulated BRET: Figure 3g; for Ligand-modulated BRET: Figure 3h, ligand 10 µM
Description: We assessed β-arrestin 2 recruitment to the receptor using BRET^1 assay. The assay measures the interaction between β-arrestin 2 fused to the Renilla reniformis luciferase (RLuc) energy donor and the receptor fused to fluorescent Venus energy acceptor (Fig. 3a). The recruitment of cytosolic β-arrestin 2 to the receptor at the plasma membrane in the presence of an agonist will promote a significant increase of the BRET signal compared to the basal state, reflecting the close proximity between the β-arrestin 2 energy donor and the receptor energy acceptor [22].
Human P2Y1-R (NCBI Reference Sequence: NM_002563.2) and P2Y12-R (NCBI Reference Sequence: NM_022788.3) were fused to double Myc epitope and rat AT1-R (NCBI Reference Sequence: NM_030985.4) to HA tag in N-terminus extracellular region. Alternatively, receptors were also fused to Venus tag in C-terminus intracellular region. Plasmids encoding Gαq-RLuc8, GFP2-Gγ2 and untagged Gβ1 were previously described. ADP was purchased from Sigma-Aldrich/Merck (Darmstadt, Germany). […] The Gq inhibitor (FR900359) was kindly supplied by Evi Kostenis (University of Bonn. Germany).
G protein activation and β-arrestin 2 recruitment were performed as previously described. Briefly, vectors encoding receptors, Gαq-RLuc8, GFP2-Gγ2, Gβ1, or β-arrestin 2 were transiently cotransfected into HEK293T/17 cells as indicated in the figure legends. Forty-eight hours after transfection, cells were washed and resuspended in PBS containing 0.1% (w/v) glucose at room temperature and then distributed (80 μg proteins/well) in a 96-well microplate (PerkinElmer). For G protein activation experiments (BRET^2), cells were incubated in the absence (basal BRET signal) or in the presence of ligand for 1 minute. BRET signal between RLuc8 and GFP2 was measured after addition of the luciferase substrate coelenterazine 400a (5 μM). For β-arrestin 2 recruitment (BRET^1), cells were stimulated with ligands for 5 or 15 min. BRET signal was recorded after incubation with coelenterazine h (5 μM) for 8 min. For kinetics studies, BRET signal between RLuc and Venus was recorded at 20-s intervals at basal state for the 2 first minutes and then for 5 min after ligand injection. For saturation curves (BRET^1), the expression level of Venus- or RLuc-tagged protein was determined by direct measurement of total fluorescence and luminescence respectively. Total fluorescence was first measured with an excitation filter at 485 nm and an emission filter at 520 nm. Then, the same sample was incubated for 8 minutes with 5 μM coelenterazine h and the total luminescence was measured. BRET^2 and BRET^1 readings were collected using a modified Infinite F500 (Tecan Group Ltd). The BRET^2 signal was calculated by the ratio of emission of GFP2 (510–540 nm) to RLuc8 (370–450 nm) and the BRET^1 signal by the ratio of emission of Venus (520–570 nm) to RLuc (370–480 nm). Sometimes, results are expressed as the Net BRET computed by deducting the BRET background signal (obtained in the presence of the energy donor alone) from the BRET signal (acquired from cells expressing both the energy donor and acceptor).

[1] = β-Arrestin 2 signaling, Fig. 4b, 15 min
[2] = Fig. 3g, inverse agonism on β-arrestin 2 recruitment, 15 min

T1 sequence (P47900 whole entry): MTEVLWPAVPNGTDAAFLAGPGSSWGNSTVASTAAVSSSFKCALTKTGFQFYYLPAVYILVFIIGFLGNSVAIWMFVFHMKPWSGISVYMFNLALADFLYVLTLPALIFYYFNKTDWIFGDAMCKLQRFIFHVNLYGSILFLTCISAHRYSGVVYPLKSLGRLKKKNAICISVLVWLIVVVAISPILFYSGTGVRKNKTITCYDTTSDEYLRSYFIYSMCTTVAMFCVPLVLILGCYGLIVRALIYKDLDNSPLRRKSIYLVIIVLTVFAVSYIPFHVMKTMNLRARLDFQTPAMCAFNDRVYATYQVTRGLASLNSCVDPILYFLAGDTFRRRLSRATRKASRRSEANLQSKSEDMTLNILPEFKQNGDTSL

SMILES	b-arrestin 2 signaling, Ligand-modulated BRET (% of maximum MRS2179 mean value) ([Ligand] 1.00E-04 M)	b-arrestin 2 signaling, Ligand-modulated BRET (% of maximum MRS2179 mean value) ([Ligand] 1.00E-05 M)	b-arrestin 2 signaling, Ligand-modulated BRET (% of maximum MRS2179 mean value) ([Ligand] 1.00E-06 M)	b-arrestin 2 signaling, Ligand-modulated BRET (% of maximum MRS2179 mean value) ([Ligand] 1.00E-07 M)	b-arrestin 2 signaling, Ligand-modulated BRET (% of maximum MRS2179 mean value) ([Ligand] 1.00E-08 M)	b-arrestin 2 signaling, Ligand-modulated BRET (% of maximum MRS2179 mean value) ([Ligand] 1.00E-09 M)	b-arrestin 2 signaling, Ligand-modulated BRET (% of maximum MRS2179 mean value) ([Ligand] 1.00E-10 M)	Effect on β-arrestin 2 recruitment / BRET signal between P2Y1-R-Venus and β-arrestin 2-RLuc (result in words)	EC50 [1] [µM]	pEC50 ± s.e.m. [1]	also measured
CNc1nc(Cl)nc2c1ncn2[C@H]1CC(OP(=O)(O)O)[C@]2(COP(=O)(O)O)C[C@H]12 (stereo in doubt) [MRS2279]	-69.6106 % of maximum MRS2179 mean value and -105.156 % of maximum MRS2179 mean value and -85.2747 % of maximum MRS2179 mean value and -86.0383 % of maximum MRS2179 mean value and -102.622 % of maximum MRS2179 mean value	-58.9493 % of maximum MRS2179 mean value and -35.292 % of maximum MRS2179 mean value and -0.8674 % of maximum MRS2179 mean value and -67.8538 % of maximum MRS2179 mean value and -74.7757 % of maximum MRS2179 mean value	-39.831 % of maximum MRS2179 mean value and -16.8165 % of maximum MRS2179 mean value and 4.878 % of maximum MRS2179 mean value and -40.0637 % of maximum MRS2179 mean value and -56.9245 % of maximum MRS2179 mean value	-39.6457 % of maximum MRS2179 mean value and -31.8109 % of maximum MRS2179 mean value and -14.3137 % of maximum MRS2179 mean value and -31.2635 % of maximum MRS2179 mean value and -51.8509 % of maximum MRS2179 mean value	-22.0748 % of maximum MRS2179 mean value and -36.9002 % of maximum MRS2179 mean value and -1.913 % of maximum MRS2179 mean value and -12.8092 % of maximum MRS2179 mean value and -19.8439 % of maximum MRS2179 mean value	-17.6957 % of maximum MRS2179 mean value and -18.0324 % of maximum MRS2179 mean value and -16.7903 % of maximum MRS2179 mean value and 1.141 % of maximum MRS2179 mean value and 5.256 % of maximum MRS2179 mean value	-24.7041 % of maximum MRS2179 mean value and -19.9635 % of maximum MRS2179 mean value and -11.9373 % of maximum MRS2179 mean value and -22.7633 % of maximum MRS2179 mean value and -19.9712 % of maximum MRS2179 mean value	behaved as inverse agonists	19.4	4.712 ± 0.2838	
CNc1ncnc2c1ncn2[C@H]1C[C@H](OP(=O)(O)O)[C@@H](COP(=O)(O)O)O1 [MRS2179]	-103.593 % of maximum MRS2179 mean value and -98.5011 % of maximum MRS2179 mean value and -96.2574 % of maximum MRS2179 mean value and -88.0215 % of maximum MRS2179 mean value and -113.627 % of maximum MRS2179 mean value	-60.9526 % of maximum MRS2179 mean value and -65.9951 % of maximum MRS2179 mean value and -71.6134 % of maximum MRS2179 mean value and -73.8216 % of maximum MRS2179 mean value and -88.9449 % of maximum MRS2179 mean value	-20.802 % of maximum MRS2179 mean value and -20.2455 % of maximum MRS2179 mean value and -36.1127 % of maximum MRS2179 mean value and -36.3804 % of maximum MRS2179 mean value and -49.6506 % of maximum MRS2179 mean value	-19.7613 % of maximum MRS2179 mean value and -27.0869 % of maximum MRS2179 mean value and -32.4514 % of maximum MRS2179 mean value and -43.962 % of maximum MRS2179 mean value and -16.0925 % of maximum MRS2179 mean value	-3.302 % of maximum MRS2179 mean value and 12.7459 % of maximum MRS2179 mean value and -20.5003 % of maximum MRS2179 mean value and -35.6867 % of maximum MRS2179 mean value and -12.0698 % of maximum MRS2179 mean value	-20.2543 % of maximum MRS2179 mean value and -2.0253 % of maximum MRS2179 mean value and -34.1131 % of maximum MRS2179 mean value and -19.5954 % of maximum MRS2179 mean value and -10.4994 % of maximum MRS2179 mean value	-0.05365 % of maximum MRS2179 mean value and -19.3587 % of maximum MRS2179 mean value and -11.2009 % of maximum MRS2179 mean value and -4.28 % of maximum MRS2179 mean value and -21.5173 % of maximum MRS2179 mean value	significantly decreased the BRET signal	5.05	5.296 ± 0.153	Effect on β-arrestin 2 recruitment at decreased (low) P2Y1-R expression (10 μM, 15 min, decreasing amounts of P2Y1-R-Venus vector, result in words): loss of the inverse agonist efficacy; Maximal efficacy (Emax), MRS2179-modulated BRET (Fig. 3g, 15 min stimulation, difference in BRET signal with and without ligand): -0.1192 ± 0.007029; EC50 [2]: 4.56 µM; pEC50 ± s.e.m. [2]: 5.341 ± 0.1565; MRS2179-modulated BRET ([MRS2179] 1.00E-04 M): -0.1343 and -0.1251 and -0.1075 and -0.1104 and -0.1004 and -0.1271; MRS2179-modulated BRET ([MRS2179] 1.00E-05 M): -0.08399 and -0.08788 and -0.08039 and -0.09033 and -0.07645 and -0.09139; MRS2179-modulated BRET ([MRS2179] 1.00E-06 M): -0.02625 and -0.04054 and -0.04836 and -0.05476 and -0.05132 and -0.07031; MRS2179-modulated BRET ([MRS2179] 1.00E-07 M): -0.0171 and -0.02456 and -0.02615 and -0.04428 and -0.0209 and -0.07223; MRS2179-modulated BRET ([MRS2179] 1.00E-08 M): -0.003323 and -0.0198 and -0.01307 and -0.01788 and -0.04276 and -0.0269; MRS2179-modulated BRET ([MRS2179] 1.00E-09 M): -0.00593 and -0.03381 and -0.01728 and -0.01928 and -0.03943 and -0.05623; MRS2179-modulated BRET ([MRS2179] 1.00E-10 M): -0.003915 and -0.01627 and -0.01217 and -0.01765 and -0.03594 and -0.03393; Ligand-modulated BRET (0.1µg P2Y1-R plasmid): -0.007776 and -0.009026 and 0.006633 and -0.01036 and -0.001083; Ligand-modulated BRET (1µg P2Y1-R plasmid): -0.04239 and -0.06101 and -0.06001 and -0.03815 and -0.06277; Ligand-modulated BRET (4µg P2Y1-R plasmid): -0.06559 and -0.09192 and -0.04789 and -0.08727 and -0.06156
